Laboratory results: patent publication US9006440B2, “Furopyridine derivatives” (Merck Patent GmbH, priority 2010, dated 2015)

These compounds were tested against T1, Syk (Homo sapiens, UniProt P43405) (assay: Syk enzyme assay (SYK flash plate assay / Caliper mobility shift)).
T1 construct: purchased BPS Bioscience, CA, USA
Type: biochemical
Description: The kinase assay is performed either as 384-well Flashplate assay (for e.g. Topcount measurement) or as 384-well Image-Flashplate assay (for LEADseeker measurement).
2.5 nM SYK, 400 nM Biotin-Aha-Aha-KEDPDYEWPSAKK
and 10 μM ATP (spiked with 0.3 μCi 33P-ATP/well) are incubated in a total volume of 50 μl (60 mM Hepes, 10 mM MgCl2, 1.2 mM Dithiothreitol, 0.02% Brij35, 0.1% BSA, pH 7.5) with or without test compound for 1 hours at 30° C. The reaction is stopped with 25 μl 200 mM EDTA. After 30 Min at 30° C. the liquid is removed and each well washed thrice with 100 μl 0.9% sodium chloride solution. Non-specific reaction is determined in presence of 0.1 μM Staurosporine. Radioactivity is measured with Topcount (when using Flashplates) or with LEADseeker (when using Image-Flashplates) respectively. Results (e.g. IC50-values) are calculated with program tools provided by the IT-department (e.g. Symyx Assay Explorer, Genedata Screener). Enzymatic Assays Using the Caliper LifeSciences Technology
The assays described here are performed on the Caliper Life Sciences LC3000 system This technology provides data on enzyme activity via measurement of the relative amounts of phosphorylated or unphosphorylated fluorescently labelled substrate peptide at the end of an enzymatic reaction. These different states of peptide are resolved by applying a potential difference across the sample. The presence of the charged phosphate group on the product (as opposed to the substrate) causes a different peptide mobility between the two peptides. This is visualized by excitation of the fluorescent label on the substrate and product peptides and represented as peaks within the analysis software.
In order to measure inhibitor activity of kinase inhibitors on this technology, a TTP Mosquito liquid handling instrument is used to place 0.25 ul of the appropriate concentration of inhibitor in 100% DMSO (for a dose response curve calculation) into each well of a 384-well plate. To this reaction components are added to a final volume of 25 ul. The table below indicates the sequences and concentrations for the assays described in this report. Standard components are 1 mM DTT (Sigma, D0632), 1 mM MgCl2 (Sigma, M1028), 100 mM HEPES pH 7.5 (Calbiochem, 391338), 0.015% Brij-35 (Sigma, B4184).
The reaction is incubated for 90 min at 25 C, and then stopped by the addition of 70 ul of Stop buffer (100 mM HEPES pH 7.5, 0.015% Brij-35, 10 mM EDTA (Sigma, E7889)).
The plate is read on a Caliper LC 3000 in an Off-Chip mobility shift assay format, on a 12-sipper chip. Unphosphorylated substrate and phosphorylated product peptide resolve as separate peaks allowing direct measurement of percentage of conversion of substrate to product. The percent conversion can be plotted against concentration of inhibitor to produce a sigmoidal dose response curve, from which an IC50 can be calculated using GeneData Condoseo or a similar product.

| Structure (SMILES) | IC50 [µM] |
| --- | --- |
| CNC(=O)c1cccc(-c2ccnc3cc(-c4cc(OC)c(OC)c(OC)c4)oc23)c1 [Compound A7, N-Methyl-3-[2-(3,4,5-trimethoxy-phenyl)-furo[3,2-b]pyridin-7-yl]-benzamide] | < 0.3 |
| COc1cc(-c2cc3nccc(-c4cccc(C(=O)NCCN(C)C)c4)c3o2)cc(OC)c1OC [Compound A8, N-(2-Dimethylamino-ethyl)-3-[2-(3,4,5-trimethoxy-phenyl)-furo[3,2-b]pyridin-7-yl]-benzamide] | < 0.3 |
| COC(=O)c1cccc(-c2ccnc3cc(-c4cc(OC)c(OC)c(OC)c4)oc23)c1 [Compound A11, 3-[2-(3,4,5-Trimethoxy-phenyl)-furo[3,2-b]pyridin-7-yl]-benzoic acid methyl ester] | 0.3 to 3 |
| COc1cc(-c2cc3nccc(-c4ccc(C#N)cc4)c3o2)cc(OC)c1OC [Compound A12, 4-[2-(3,4,5-Trimethoxy-phenyl)-furo[3,2-b]pyridin-7-yl]-benzonitrile] | 3 to 50 |
| COc1cc(-c2cc3nccc(-c4cccc5ncccc45)c3o2)cc(OC)c1OC [Compound A18, 5-[2-(3,4,5-Trimethoxy-phenyl)-furo[3,2-b]pyridin-7-yl]-quinoline] | 0.3 to 3 |
| COc1cc(-c2cc3nccc(-c4ccccc4C)c3o2)cc(OC)c1OC [Compound A21, 7-o-Tolyl-2-(3,4,5-trimethoxy-phenyl)-furo[3,2-b]pyridine] | < 0.3 |
| COc1cc(-c2cc3nccc(-c4cccc5ccccc45)c3o2)cc(OC)c1OC [Compound A22, 7-Naphthalene-1-yl-2-(3,4,5-trimethoxy-phenyl)-furo[3,2-b]pyridine] | 0.3 to 3 |
| COc1cc(-c2cc3nccc(-c4ccc5ncccc5c4)c3o2)cc(OC)c1OC [Compound A23, 6-[2-(3,4,5-Trimethoxy-phenyl)-furo[3,2-b]pyridin-7-yl]-quinoline] | < 0.3 |
| COc1cc(-c2cc3nccc(-c4ccnc5ccccc45)c3o2)cc(OC)c1OC [Compound A24, 4-[2-(3,4,5-Trimethoxy-phenyl)-furo[3,2-b]pyridin-7-yl]-quinoline] | 0.3 to 3 |
| COc1cc(-c2cc3nccc(-c4ccc(C)c5ncccc45)c3o2)cc(OC)c1OC [Compound A26, 8-Methyl-5-[2-(3,4,5-trimethoxy-phenyl)-furo[3,2-b]pyridin-7-yl]-quinoline] | 0.3 to 3 |
| COc1cc(-c2cc3nccc(-c4ccc5cc[nH]c5c4)c3o2)cc(OC)c1OC [Compound A27, 7-(1H-Indol-6-yl)-2-(3,4,5-trimethoxy-phenyl)-furo[3,2-b]pyridine] | < 0.3 |
| COc1cc(-c2cc3nccc(-c4cccc(OCc5ccccc5)c4)c3o2)cc(OC)c1OC [Compound A31, 7-(3-Benzyloxy-phenyl)-2-(3,4,5-trimethoxy-phenyl)-furo[3,2-b]pyridine] | 3 to 50 |
| COc1cc(-c2cc3nccc(-c4ccc(C)cc4C)c3o2)cc(OC)c1OC [Compound A32, 7-(2,4-Dimethyl-phenyl)-2-(3,4,5-trimethoxy-phenyl)-furo[3,2-b]pyridine] | 0.3 to 3 |
| CCOC(=O)Cn1cc(-c2ccnc3cc(-c4cc(OC)c(OC)c(OC)c4)oc23)cn1 [Compound A33, {4-[2-(3,4,5-Trimethoxy-phenyl)-furo[3,2-b]pyridin-7-yl]-pyrazol-1-yl}-acetic acid ethyl ester] | < 0.3 |
| COc1cc(-c2cc3nccc(-c4cnn(C)c4)c3o2)cc(OC)c1OC [Compound A34, 7-(1-Methyl-1H-pyrazol-4-yl)-2-(3,4,5-trimethoxy-phenyl)-furo[3,2-b]pyridine] | < 0.3 |
| Cc1cc(C(=O)NC(C)(C)CO)cc(-c2cc3nccc(-c4ccccc4)c3o2)c1 [Compound A43, N-(2-Hydroxy-1,1-dimethyl-ethyl)-3-methyl-5-(7-phenyl-furo[3,2-b]pyridin-2-yl)-benzamide] | < 0.3 |
| COc1cc(-c2cc3nccc(-c4ccc(CNC(C)=O)cc4)c3o2)cc(OC)c1OC [Compound A54, N-{4-[2-(3,4,5-Trimethoxy-phenyl)-furo[3,2-b]pyridin-7-yl]-benzyl}-acetamide] | 0.3 to 3 |
| Fc1cc(F)cc(-c2cc3nccc(-c4cc(F)cc(F)c4)c3o2)c1 [Compound B1, 2,7-Bis-(3,5-difluoro-phenyl)-furo[3,2-b]pyridine] | 3 to 50 |

| Structure (SMILES) | IC50 [µM] |
| --- | --- |
| Fc1ccc(-c2cc3nccc(-c4ccc(F)cc4)c3o2)cc1 [Compound B6, 2,7-Bis-(4-fluoro-phenyl)-furo[3,2-b]pyridine] | 3 to 50 |
| COc1cc(-c2cc3nccc(NCc4cccnc4N(C)S(C)(=O)=O)c3o2)cc(OC)c1OC [Compound B7, N-Methyl-N-(3-{[2-(3,4,5-trimethoxy-phenyl)-furo[3,2-b]pyridin-7-ylamino]-methyl}-pyridin-2-yl)-methanesulfonamide] | 3 to 50 |
| COc1cc(-c2cc3nccc(NCc4cccc(S(C)(=O)=O)c4)c3o2)cc(OC)c1OC [Compound B9] | 3 to 50 |
| O=C(Nc1ccc(Oc2ccnc3cc(-c4ccccc4)oc23)cc1)c1cccn(-c2ccc(F)cc2)c1=O [Compound B13, 1-(4-Fluoro-phenyl)-2-oxo-1,2-dihydro-pyridine-3-carboxylic acid [4-(2-phenyl-furo[3,2-b]pyridin-7-yloxy)-phenyl]-amide] | 0.3 to 3 |
| CCOc1ccn(-c2ccc(F)cc2)c(=O)c1C(=O)Nc1ccc(Oc2ccnc3cc(-c4ccccc4)oc23)cc1 [Compound B14, 4-Ethoxy-1-(4-fluoro-phenyl)-2-oxo-1,2-dihydro-pyridine-3-carboxylic acid [4-(2-phenyl-furo[3,2-b]pyridin-7-yloxy)-phenyl]-amide] | 0.3 to 3 |
| CN(c1ncccc1CNc1ccnc2cc(-c3ccccc3)oc12)S(C)(=O)=O [Compound B20, N-Methyl-N-{3-[(2-phenyl-furo[3,2-b]pyridin-7-ylamino)-methyl]-pyridin-2-yl}-methanesulfonamide] | 3 to 50 |
| COc1cc(-c2cc3nccc(Nc4ccc5c(n4)NC(=O)C(C)(C)O5)c3o2)cc(OC)c1OC [Compound B29, 2,2-Dimethyl-6-[2-(3,4,5-trimethoxy-phenyl)-furo[3,2-b]pyridin-7-ylamino]-4H-pyrido[3,2-b][1,4]oxazin-3-one] | 0.3 to 3 |
| COc1c(C)cc(-c2cc3nccc(-c4cc(C)c(OC)c(C)c4)c3o2)cc1C [Compound B32, 2,7-Bis-(4-methoxy-3,5-dimethyl-phenyl)-furo[3,2-b]pyridine] | 3 to 50 |
| Cc1cccc(-c2cc3nccc(-c4cccc(C)c4)c3o2)c1 [Compound B34, 2,7-Di-m-tolyl-furo[3,2-b]pyridine] | 3 to 50 |
| COc1ccc(-c2cc3nccc(-c4ccc(OC)cc4)c3o2)cc1 [Compound B35, 2,7-Bis-(4-methoxy-phenyl)-furo[3,2-b]pyridine] | 3 to 50 |
| c1cc(-c2ccc3c(c2)OCCO3)c2oc(-c3ccc4c(c3)OCCO4)cc2n1 [Compound B37, 2,7-Bis-(2,3-dihydro-benzo[1,4]dioxin-6-yl)-furo[3,2-b]pyridine] | 3 to 50 |
| COc1ccc(-c2cc3nccc(-c4ccc(OC)c(OC)c4)c3o2)cc1OC [Compound B39, 2,7-Bis-(3,4-dimethoxy-phenyl)-furo[3,2-b]pyridine] | 0.3 to 3 |
| COc1cccc(-c2cc3nccc(-c4cccc(OC)c4OC)c3o2)c1OC [Compound B42, 2,7-Bis-(2,3-dimethoxy-phenyl)-furo[3,2-b]pyridine] | 3 to 50 |
| CC(C)(C#N)c1ccc(-c2cc3nccc(-c4ccc(C(C)(C)C#N)cc4)c3o2)cc1 [Compound B55, 2-(4-{2-[4-(Cyano-dimethyl-methyl)-phenyl]-furo[3,2-b]pyridin-7-yl}-phenyl)-2-methyl-propionitrile] | 0.3 to 3 |
| C=C(C)c1ccc(-c2cc3nccc(Nc4ccc5[nH]ccc5c4C)c3o2)cc1 [Compound B62, [2-(4-Isopropenyl-phenyl)-furo[3,2-b]pyridin-7-yl]-(4-methyl-1H-indol-5-yl)-amine] | 3 to 50 |
| COc1cc(-c2cc3nccc(-c4cc(C)c(OC)c(C)c4)c3o2)cc(OC)c1OC [Compound B73, 7-(4-Methoxy-3,5-dimethylphenyl)-2-(3,4,5-trimethoxyphenyl)furo[3,2-b]pyridine] | 0.3 to 3 |
| COc1cc(-c2cc3nccc(-c4ccc(C(=O)NC5CCCC5)cc4)c3o2)cc(OC)c1OC [Compound B75, N-Cyclopentyl-4-(2-(3,4,5-trimethoxyphenyl)furo[3,2-b]pyridin-7-yl)benzamide] | 3 to 50 |
